Test results from ChEMBL document CHEMBL5634133, “Indirubin derivatives as bifunctional molecules inducing DNA damage and targeting PARP for the treatment of cancer” (Eur J Med Chem, 2023).
Calls of active or inactive are those of the source. The rule behind the calls is not given here.

Assays:
NCM460 = experiment: Antiproliferative activity against human NCM460 cells assessed as inhibition of cell viability incubated for 72 hrs by CCK8 assay; type: functional, cell-based; settings: NCM460, 72 h
A549 = experiment: Antiproliferative activity against human A549 cells assessed as inhibition of cell viability incubated for 72 hrs by CCK8 assay; type: functional, cell-based; settings: A549, 72 h
MCF7 = experiment: Antiproliferative activity against human MCF7 cells assessed as inhibition of cell viability incubated for 72 hrs by CCK8 assay; type: functional, cell-based; settings: MCF7, 72 h
MV4-11 = experiment: Antiproliferative activity against human MV4-11 cells assessed as inhibition of cell viability incubated for 72 hrs by CCK8 assay; type: functional, cell-based; settings: MV4-11, 72 h
HCT-116 [1] = experiment: Antiproliferative activity against human HCT-116 cells assessed as inhibition of cell viability incubated for 72 hrs by CCK8 assay; type: functional, cell-based; settings: HCT-116, 72 h
[2] = target: T1, Poly [ADP-ribose] polymerase 1 (Homo sapiens, UniProt P09874); experiment: Inhibition of PARP1 (unknown origin) incubated for 10 mins by chemiluminescence assay
T1 sequence (P09874 whole entry): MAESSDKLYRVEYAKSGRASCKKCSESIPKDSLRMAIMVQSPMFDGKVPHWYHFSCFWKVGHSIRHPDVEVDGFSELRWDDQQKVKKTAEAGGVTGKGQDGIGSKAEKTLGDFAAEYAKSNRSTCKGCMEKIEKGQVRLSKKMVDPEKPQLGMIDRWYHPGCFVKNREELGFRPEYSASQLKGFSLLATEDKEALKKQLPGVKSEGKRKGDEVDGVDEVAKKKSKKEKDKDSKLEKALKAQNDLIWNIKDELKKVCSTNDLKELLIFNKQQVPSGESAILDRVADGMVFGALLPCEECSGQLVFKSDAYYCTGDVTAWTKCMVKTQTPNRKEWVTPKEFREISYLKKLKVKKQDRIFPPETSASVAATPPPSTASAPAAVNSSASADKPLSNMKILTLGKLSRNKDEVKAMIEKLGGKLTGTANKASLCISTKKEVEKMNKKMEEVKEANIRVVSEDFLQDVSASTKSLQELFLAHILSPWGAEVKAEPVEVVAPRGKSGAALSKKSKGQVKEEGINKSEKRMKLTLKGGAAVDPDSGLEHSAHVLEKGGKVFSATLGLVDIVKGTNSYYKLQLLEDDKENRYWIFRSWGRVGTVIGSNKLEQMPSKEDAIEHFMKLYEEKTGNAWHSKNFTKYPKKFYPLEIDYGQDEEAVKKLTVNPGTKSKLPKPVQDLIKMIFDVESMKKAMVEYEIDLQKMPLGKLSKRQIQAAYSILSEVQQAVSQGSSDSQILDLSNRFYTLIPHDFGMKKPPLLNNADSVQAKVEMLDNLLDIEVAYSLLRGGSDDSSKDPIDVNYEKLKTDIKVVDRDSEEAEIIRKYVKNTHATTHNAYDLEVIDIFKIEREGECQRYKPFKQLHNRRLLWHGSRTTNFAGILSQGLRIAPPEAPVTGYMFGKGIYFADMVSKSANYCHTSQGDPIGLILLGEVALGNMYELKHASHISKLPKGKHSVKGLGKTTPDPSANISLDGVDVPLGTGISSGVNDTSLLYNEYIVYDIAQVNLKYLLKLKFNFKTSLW

HCT-116 [3] = experiment: Antitumor activity against human HCT-116 cells xenografted in BALB/c nude mouse assessed as tumor growth inhibition at 20 mg/kg, ip administered for 14 days relative to control; type: functional; settings: Mus musculus, HCT-116, 336 h, time 14 day, read-out: TGI
HCT-116 [4] = experiment: Antitumor activity against human HCT-116 cells xenografted in BALB/c nude mouse assessed as tumor growth inhibition at 10 mg/kg, ip administered for 14 days relative to control; type: functional; settings: HCT-116, 336 h, time 14 day, read-out: TGI
[5] = Half life in BALB/c mouse at 20 mg/kg, po and measured after 24 hrs by LC-MS/MS analysis; type: ADME, organism-based; settings: in vivo
[6] = Cmax in BALB/c mouse at 20 mg/kg, po and measured after 24 hrs by LC-MS/MS analysis; type: ADME, organism-based; settings: in vivo
[7] = AUC(0 to t) in BALB/c mouse at 20 mg/kg, po and measured after 24 hrs by LC-MS/MS analysis; type: ADME, organism-based; settings: in vivo
[8] = AUC(0 to infinity) in BALB/c mouse at 20 mg/kg, po and measured after 24 hrs by LC-MS/MS analysis; type: ADME, organism-based; settings: in vivo
[9] = Clearance in BALB/c mouse at 20 mg/kg, po and measured after 24 hrs by LC-MS/MS analysis; type: ADME, organism-based; settings: in vivo
HCT-116 [10] = experiment: Antiproliferative activity against human HCT-116 cells assessed as inhibition of colony formation incubated for 48 hrs medium replaced with every 14 days by crystal violet staining based optical microscope; type: functional, cell-based; settings: time 14.0 day
HCT-116 [11] = experiment: Antiproliferative activity against human HCT-116 cells assessed as decrease in number of EdU-positive cells at 0.25 to 1 uM incubated for 48 hrs in presence of EdU labeling agent by Hoechst staining based confocal microscopy; type: functional, cell-based; settings: dose 0.25-1 µM
[12] = target: T1, Poly [ADP-ribose] polymerase 1; experiment: Inhibition of PARP1 in human HCT-116 cells assessed as inhibition of PARP-induced PARylation incubated for 48 hrs by Western blotting analysis; type: cell-based; settings: dose 0.25-1 µM
HCT-116 [13] = experiment: Induction of DNA damage in human HCT-116 cells assessed as increase in gammaH2AX phosphorylation level incubated for 48 hrs by Western blotting analysis; type: functional, cell-based; settings: dose 0.25-1 µM
HCT-116 [14] = experiment: Induction of DNA damage in human HCT-116 cells assessed as increase in gammaH2AX phosphorylation level incubated for 48 hrs by DAPI staining based immunofluorescence analysis; type: functional, cell-based; settings: dose 0.25-1 µM
HCT-116 [15] = experiment: Induction of apoptosis in human HCT-116 cells assessed as viable cells at 0.25 uM incubated for 48 hrs by Annexin V-PE/7-AAD staining based flow cytometry analysis (reference value: 92.8 %); type: functional; settings: read-out: Activity
HCT-116 [16] = experiment: Induction of apoptosis in human HCT-116 cells assessed as early apoptotic cells at 0.25 uM incubated for 48 hrs by Annexin V-PE/7-AAD staining based flow cytometry analysis (reference value: 6.78 %); type: functional
HCT-116 [17] = experiment: Induction of apoptosis in human HCT-116 cells assessed as late apoptotic cells at 0.25 uM incubated for 48 hrs by Annexin V-PE/7-AAD staining based flow cytometry analysis (reference value: 0.39 %); type: functional
HCT-116 [18] = experiment: Induction of apoptosis in human HCT-116 cells assessed as necrotic cells at 0.25 uM incubated for 48 hrs by Annexin V-PE/7-AAD staining based flow cytometry analysis (reference value: 0 %); type: functional
HCT-116 [19] = experiment: Induction of apoptosis in human HCT-116 cells assessed as viable cells at 0.5 uM incubated for 48 hrs by Annexin V-PE/7-AAD staining based flow cytometry analysis (reference value: 92.8 %); type: functional; settings: read-out: Activity
HCT-116 [20] = experiment: Induction of apoptosis in human HCT-116 cells assessed as early apoptotic cells at 0.5 uM incubated for 48 hrs by Annexin V-PE/7-AAD staining based flow cytometry analysis (reference value: 6.78 %); type: functional
HCT-116 [21] = experiment: Induction of apoptosis in human HCT-116 cells assessed as late apoptotic cells at 0.5 uM incubated for 48 hrs by Annexin V-PE/7-AAD staining based flow cytometry analysis (reference value: 0.39 %); type: functional
HCT-116 [22] = experiment: Induction of apoptosis in human HCT-116 cells assessed as necrotic cells at 0.5 uM incubated for 48 hrs by Annexin V-PE/7-AAD staining based flow cytometry analysis (reference value: 0 %); type: functional
HCT-116 [23] = experiment: Induction of apoptosis in human HCT-116 cells assessed as viable cells at 1 uM incubated for 48 hrs by Annexin V-PE/7-AAD staining based flow cytometry analysis (reference value: 92.8 %); type: functional; settings: read-out: Activity
HCT-116 [24] = experiment: Induction of apoptosis in human HCT-116 cells assessed as early apoptotic cells at 1 uM incubated for 48 hrs by Annexin V-PE/7-AAD staining based flow cytometry analysis (reference value: 6.78 %); type: functional
HCT-116 [25] = experiment: Induction of apoptosis in human HCT-116 cells assessed as late apoptotic cells at 1 uM incubated for 48 hrs by Annexin V-PE/7-AAD staining based flow cytometry analysis (reference value: 0.39 %); type: functional
HCT-116 [26] = experiment: Induction of apoptosis in human HCT-116 cells assessed as necrotic cells at 1 uM incubated for 48 hrs by Annexin V-PE/7-AAD staining based flow cytometry analysis (reference value: 0 %); type: functional
HCT-116 [27] = experiment: Induction of apoptosis in human HCT-116 cells assessed as increase in Cleaved-PARP protein expression level by Western blotting analysis; type: functional, cell-based; settings: dose 0.25-1 µM
HCT-116 [28] = experiment: Induction of apoptosis in human HCT-116 cells assessed as increase in Bax protein expression level by Western blotting analysis; type: functional, cell-based; settings: dose 0.25-1 µM
HCT-116 [29] = experiment: Induction of apoptosis in human HCT-116 cells assessed as increase in Cleaved-Caspase-3 protein expression level by Western blotting analysis; type: functional, cell-based; settings: dose 0.25-1 µM
HCT-116 [30] = experiment: Induction of apoptosis in human HCT-116 cells assessed as decrease in Bcl-2 protein expression level by Western blotting analysis; type: functional, cell-based; settings: dose 0.25-1 µM
HCT-116 [31] = experiment: Induction of apoptosis in human HCT-116 cells assessed as decrease in Caspase-3 protein expression level by Western blotting analysis; type: functional, cell-based; settings: dose 0.25-1 µM
HCT-116 [32] = experiment: Induction of apoptosis in human HCT-116 cells assessed as increase in accumulation of cells at S phase at 0.25 to 1 uM incubated for 48 hrs by propidium iodide staining based flow cytometry analysis (reference value: 24.67%); type: functional; settings: dose 0.25-1 µM
HCT-116 [33] = experiment: […] in human HCT-116 cells assessed as decrease in accumulation of cells at G2/M phase at 0.25 to 1 uM incubated for 48 hrs by propidium iodide staining based flow cytometry analysis (Rvb =34.99%); type: functional; parameters: scale not given: the % may be the effect or the level left; settings: dose 0.25-1 µM
HCT-116 [34] = experiment: Antiproliferative activity against human HCT-116 cells transfected with PARP1 siRNA assessed as inhibition of cell viability at 0.5 uM incubated for 72 hrs by CCK8 assay; type: functional, cell-based
HCT-116 [35] = experiment: Antitumor activity against human HCT-116 cells xenografted in BALB/c nude mouse assessed as reduction in tumor weight at 10 mg/kg, ip administered for 14 days relative to control; type: functional, organism-based; settings: time 14.0 day
[36] = Toxicity in BALB/c nude mouse xenografted with human HCT-116 cells assessed as change in body weight at 20 mg/kg, ip administered for 14 days; type: organism-based; settings: in vivo, 336 h, time 14 day
HCT-116 [37] = experiment: Antitumor activity against human HCT-116 cells xenografted in BALB/c nude mouse assessed as suppression of tumor growth at 10 mg/kg, ip administered for 14 days relative to control; type: functional, organism-based; settings: time 14.0 day
[38] = Toxicity in BALB/c nude mouse xenografted with human HCT-116 cells assessed as tissue morphology at 20 mg/kg, ip administered for 14 days by hematoxylin and eosin staining based assay; type: organism-based; settings: in vivo, 336 h, time 14 day
[39] = target: T1, Poly [ADP-ribose] polymerase 1; settings: dose 10.0 nM, time 10.0 min

SMILES: O=C1Nc2ccccc2/C1=C1/Nc2ccccc2/C1=N\OCCCC(=O)N1CCN(C(=O)c2ccc(Cc3n[nH]c(=O)c4ccccc34)cc2F)CC1
- IC50 (NCM460): > 60000 nM
- IC50 (A549): 3260 nM
- IC50 (MCF7): 1600 nM
- IC50 (MV4-11): 520 nM
- IC50 (HCT-116 [1]): 310 nM
- IC50 [2]: 1.89 nM
- inhibition in vivo at 20 mg/kg (HCT-116 [3]): 86.6%
- inhibition in vivo at 10 mg/kg (HCT-116 [4]): 75.9%
- half-life [5]: 5.82 h
- Cmax [6]: 6040 ng/mL
- AUCt [7]: 5900 ng·h/mL
- AUC [8]: 6450 ng·h/mL
- CL [9]: 51.65 mL/min/kg
- Activity (HCT-116 [10]): Dose-Dependent Effect
- Activity (HCT-116 [11]): Active
- inhibition [12]: Dose-Dependent Effect
- Activity (HCT-116 [13]): Dose-Dependent Effect
- Activity (HCT-116 [14]): Dose-Dependent Effect
- viability at 0.25 µM (HCT-116 [15]): 89.3%
- Activity (HCT-116 [16]): 8.64%
- Activity (HCT-116 [17]): 1.76%
- Activity (HCT-116 [18]): 0.12%
- viability at 0.5 µM (HCT-116 [19]): 83.7%
- Activity (HCT-116 [20]): 14.6%
- Activity (HCT-116 [21]): 1.05%
- Activity (HCT-116 [22]): 0.11%
- viability at 1 µM (HCT-116 [23]): 69.4%
- Activity (HCT-116 [24]): 22.7%
- Activity (HCT-116 [25]): 7.01%
- Activity (HCT-116 [26]): 0.28%
- Activity (HCT-116 [27]): Dose-Dependent Effect
- Activity (HCT-116 [28]): Dose-Dependent Effect
- Activity (HCT-116 [29]): Dose-Dependent Effect
- Activity (HCT-116 [30]): Dose-Dependent Effect
- Activity (HCT-116 [31]): Dose-Dependent Effect
- Activity (HCT-116 [32]): 41.03%
- Activity (HCT-116 [33]): 10.5%
- Activity (HCT-116 [34]): inactive
- Activity (HCT-116 [35]): Active
- Activity [36]: Non-Toxic
- Activity (HCT-116 [37]): Active
- Activity [38]: Non-Toxic
- inhibition [39]: 64.8%
